What all share (assay): Test A pre-/postemergence herbicide test
For one assay, the system named is velvetleaf. Format: in vivo, Abutilon theophrasti. An excerpt:
(§1) Seeds of plant species selected from barnyardgrass (Echinochloa crus-galli (L.) Beauv.), downy bromegrass (Bromus tectorum L.), large crabgrass (Digitaria sanguinalis (L.) Scop.), giant foxtail (Setaria faberi Herrm.), morningglory (Ipomoea spp.), redroot pigweed (Amaranthus retroflexus L.) and velvetleaf (Abutilon theophrasti Medik.) were planted into a sandy loam soil and treated preemergence with a directed soil spray using test chemicals formulated in a non-phytotoxic solvent mixture which included a surfactant. At the same time plants selected from these species were also treated postemergence by spraying to runoff with test chemicals formulated.
(§2) Plants ranged in height from 2 to 10 cm and were in the one- to two-leaf stage for the postemergence treatment. Treated plants and untreated controls were maintained in a greenhouse for approximately ten days, after which time all treated plants were compared to untreated controls and visually evaluated for injury. Plant response ratings, summarized in Table A, are based on a 0 to 100 scale where 0 is no effect and 100 is complete control. A dash (-) response means no test results.

The next assay deals with large crabgrass. The assay is classed as in vivo, Digitaria sanguinalis.
From the text: as §1, §2

In the next assay the test system is giant foxtail. Format: in vivo, Setaria faberi.
From the text: as §1, §2

The test system of the next assay is barnyardgrass. Format: in vivo, Echinochloa crus-galli.
From the text: as §1, §2

A further assay has as its system morningglory. The assay is classed as in vivo, Ipomoea spp.
From the text: as §1, §2

The subject of a further assay is redroot pigweed. Format: in vivo, Amaranthus retroflexus.
From the text: as §1, §2

Where [1] appears, read: Postemergence, 500 g ai/ha, 0 to 100 scale, 0 no effect, 100 complete control.
The mark [2] stands for this setting: Postemergence, 2000 g ai/ha, 0 to 100 scale, 0 no effect, 100 complete control.
Setting [3] is: Preemergence, 500 g ai/ha, visual rating, 0 to 100 scale (0 no effect, 100 complete control).
The mark [4] stands for this setting: Preemergence, 2000 g ai/ha, visual rating, 0 to 100 scale (0 no effect, 100 complete control).
Setting [5] is: Postemergence, 125 g ai/ha, 0 to 100 scale, 0 no effect, 100 complete control.
[6] abbreviates: preemergence, 125 g ai/ha, visual injury, 0 to 100 scale (0 no effect, 100 complete control).
Setting [7] is: preemergence, 500 g ai/ha, visual injury, 0 to 100 scale (0 no effect, 100 complete control).
Setting [8] is: Postemergence, 250 g ai/ha, 0 to 100 scale, 0 no effect, 100 complete control.
The mark [9] stands for this setting: Postemergence, 1000 g ai/ha, 0 to 100 scale, 0 no effect, 100 complete control.
[10] abbreviates: Preemergence, 1000 g ai/ha, visual rating, 0 to 100 scale (0 no effect, 100 complete control).
Where [11] appears, read: preemergence, 250 g ai/ha, visual injury, 0 to 100 scale (0 no effect, 100 complete control).

As to `Cn1nc(C(C)(C)C)cc1C(=O)Nc1cccc2c1CCC2=NO` [Compound 111], the “Velvetleaf plant response rating” value in the assay with velvetleaf (setting [1]), with velvetleaf (setting [3]) and in the assay with velvetleaf (setting [4]) was 0 throughout. For the same molecule, in the assay with velvetleaf (setting [2]), the “Plant response rating, Velvetleaf” value is recorded as 0. In addition, the results for the “Crabgrass, Large plant response rating” value in the assay on large crabgrass (setting [1]), in the assay with large crabgrass (setting [3]) and in the assay on large crabgrass (setting [4]) were 10, 25 and 30, respectively. The “Plant response rating, Crabgrass, Large” value in the assay with large crabgrass (setting [2]) is 10. Also, the figures for the “Foxtail, Giant plant response rating” value in the assay on giant foxtail (setting [1]), with giant foxtail (setting [3]) and in the assay with giant foxtail (setting [4]) were 0, 45 and 75, respectively. The “Plant response rating, Foxtail, Giant” value in the assay on giant foxtail (setting [2]) worked out at 0. Further, the entries for the “Barnyardgrass plant response rating” value in the assay on barnyardgrass (setting [1]), with barnyardgrass (setting [3]) and with barnyardgrass (setting [4]) were 0, 0 and 10, respectively. Also, the “Plant response rating, Barnyardgrass” value in the assay with barnyardgrass (setting [2]) was 0. Further, the entries for the “Morningglory plant response rating” value in the assay with morningglory (setting [1]), with morningglory (setting [3]) and in the assay with morningglory (setting [4]) were 5, 0 and 0, respectively. In the assay on morningglory (setting [2]), the “Plant response rating, Morningglory” value was found to be 0. For the same molecule, the “Pigweed plant response rating” value amounted to 5 in the assay on redroot pigweed (setting [1]), 10 with redroot pigweed (setting [3]) and 10 with redroot pigweed (setting [4]). In the assay with redroot pigweed (setting [2]), the “Plant response rating, Pigweed” value was found to be 10.

As for `C=Cn1nc(C(C)(C)C)cc1C(=O)Nc1cccc(C(=O)NCCCl)c1` [Compound 38], the “Velvetleaf plant response rating” value in the assay with velvetleaf (setting [5]) turned out to be 10; in the assay with velvetleaf (setting [3]), 5; with velvetleaf (setting [6]), 0. For the same molecule, in the assay with velvetleaf (setting [1]), the “Plant response rating, Velvetleaf” value worked out at 20. In addition, the figures for the “Crabgrass, Large plant response rating” value in the assay on large crabgrass (setting [5]), with large crabgrass (setting [3]) and in the assay on large crabgrass (setting [6]) were 30, 10 and 0, respectively. In addition, the “Plant response rating, Crabgrass, Large” value with large crabgrass (setting [1]) was 60. The “Foxtail, Giant plant response rating” value turned out to be 50 in the assay with giant foxtail (setting [5]), 0 with giant foxtail (setting [3]) and 0 in the assay on giant foxtail (setting [6]). Further, the “Plant response rating, Foxtail, Giant” value in the assay with giant foxtail (setting [1]) is reported as 60. Moreover, the “Barnyardgrass plant response rating” value amounted to 40 in the assay with barnyardgrass (setting [5]), 5 in the assay with barnyardgrass (setting [3]) and 0 in the assay with barnyardgrass (setting [6]). In the assay on barnyardgrass (setting [1]), the “Plant response rating, Barnyardgrass” value was 55. Also, the “Morningglory plant response rating” value in the assay on morningglory (setting [5]) stood at 0; in the assay with morningglory (setting [3]) it was 10; in the assay on morningglory (setting [6]) it was 5. Besides, the “Plant response rating, Morningglory” value in the assay with morningglory (setting [1]) was 0. For the same molecule, the figures for the “Pigweed plant response rating” value with redroot pigweed (setting [5]), in the assay on redroot pigweed (setting [3]) and with redroot pigweed (setting [6]) were 50, 0 and 0, respectively. The “Plant response rating, Pigweed” value in the assay on redroot pigweed (setting [1]) turned out to be 70.

As for `CCc1nn(C(C)(C)C)cc1C(=S)Nc1cc(C(=S)N(C)C)ccc1F` [Compound 453], the “Velvetleaf plant response rating” value with velvetleaf (setting [5]) came to 5; in the assay with velvetleaf (setting [1]), 10; in the assay with velvetleaf (setting [6]), 0; with velvetleaf (setting [7]), 0. In addition, the “Crabgrass, Large plant response rating” value in the assay on large crabgrass (setting [5]) is on record as 10; with large crabgrass (setting [1]) it was 10; in the assay with large crabgrass (setting [6]) it was 10; in the assay on large crabgrass (setting [7]), 15. For the same molecule, the “Foxtail, Giant plant response rating” value in the assay with giant foxtail (setting [5]) was determined as 10; in the assay on giant foxtail (setting [1]), 10; in the assay on giant foxtail (setting [6]) it was 0; with giant foxtail (setting [7]) it was 0. For the same molecule, the “Barnyardgrass plant response rating” value is given as 10 in the assay on barnyardgrass (setting [5]), 15 in the assay with barnyardgrass (setting [1]), 20 with barnyardgrass (setting [6]) and 45 in the assay with barnyardgrass (setting [7]). For the same molecule, the “Morningglory plant response rating” value worked out at 10 with morningglory (setting [5]), 10 with morningglory (setting [1]), 0 in the assay on morningglory (setting [6]) and 0 with morningglory (setting [7]). For the same molecule, the “Pigweed plant response rating” value with redroot pigweed (setting [5]) was 10; in the assay on redroot pigweed (setting [1]) it was 20; in the assay on redroot pigweed (setting [6]), 10; with redroot pigweed (setting [7]), 10.

Take `C=Cn1nc(C(C)(C)C)cc1C(=O)Nc1cccc(C(=O)NC2CC2)c1` [Compound 39]: the results for the “Velvetleaf plant response rating” value in the assay on velvetleaf (setting [8]), in the assay with velvetleaf (setting [10]) and in the assay on velvetleaf (setting [11]) were 10, 20 and 10, respectively. Moreover, in the assay on velvetleaf (setting [9]), the “Plant response rating, Velvetleaf” value worked out at 10. The entries for the “Crabgrass, Large plant response rating” value in the assay on large crabgrass (setting [8]), with large crabgrass (setting [10]) and with large crabgrass (setting [11]) were 10, 85 and 35, respectively. Besides, the “Plant response rating, Crabgrass, Large” value in the assay on large crabgrass (setting [9]) is reported as 35. Moreover, the “Foxtail, Giant plant response rating” value in the assay on giant foxtail (setting [8]) turned out to be 10; in the assay with giant foxtail (setting [10]), 40; with giant foxtail (setting [11]), 20. Further, the “Plant response rating, Foxtail, Giant” value with giant foxtail (setting [9]) is given as 45. The results for the “Barnyardgrass plant response rating” value in the assay on barnyardgrass (setting [8]), with barnyardgrass (setting [10]) and in the assay with barnyardgrass (setting [11]) were 10, 25 and 15, respectively. Moreover, the “Plant response rating, Barnyardgrass” value with barnyardgrass (setting [9]) stood at 55. For the same molecule, the “Morningglory plant response rating” value was 0 in the assay on morningglory (setting [8]), 20 in the assay with morningglory (setting [10]) and 0 with morningglory (setting [11]). For the same molecule, the “Plant response rating, Morningglory” value in the assay with morningglory (setting [9]) is 0. In addition, the “Pigweed plant response rating” value in the assay on redroot pigweed (setting [8]) was determined as 70; in the assay with redroot pigweed (setting [10]), 100; in the assay on redroot pigweed (setting [11]), 55. For the same molecule, in the assay with redroot pigweed (setting [9]), the “Plant response rating, Pigweed” value is given as 75.
